The results in this text go back to patent US6761896B1, “Skin cosmetic care system and method” (Unilever Home & Personal Care USA, division of Conopco, Inc., priority 1998, dated 2004).

Where “and” joins values, the source holds several entries; their conditions need not be identical. Identical values can stand only once.

What all share (format): cell-based
The test system of data set [1] is human sebocytes. Nature of the data set: Lipid production by sebocytes in vitro (14C-acetate incorporation). Conditions: for % Reduction: vs control of same plate. Here is the method: This example measured the effect of various actives in combination with magnets on lipid production by sebocytes in vitro.
Secondary cultures of human sebocytes obtained from an adult […] were grown in the inner 24 wells of 48-well tissue culture plates (Costar Corp.; Cambridge, Mass.) until confluent. Sebocyte growth medium consisted of Clonetics Keratinocyte Basal Medium (KBM) supplemented with 14 ug/ml bovine pituitary extract, 0.4 ug/ml hydrocortisone, 5 ug/ml insulin, 10 ng/ml epidermal growth factor, 1.2×10^−10 M cholera toxin, 100 units/ml penicillin, and 100 ug/ml streptomycin. All cultures were incubated at 37° C. in the presence of 7.5% CO2. Medium was changed three times per week.
On the first day of experimentation, the growth medium was removed and the sebocytes washed three times with sterile Dulbecco's Modified Eagle Medium (DMEM; phenol red free). Fresh DMEM was added to each sample (triplicates) with 5 microliter of test agent solubilized in ethanol (312.5 uM iso-tridecylsalicylate or 10 uM Retinyl Linoleate; 6 replicates for each sample). Controls consisted of addition of ethanol alone. Each magnet was sandwiched between 2 plates for 24 hours. For 2 of the sebocyte plates, the configuration was North magnet pointing up, for 2 other plates, the configuration was reversed (South magnet up), and one plate served as a control (no presence of magnets).
After 24 hours, addition of ^14C-acetate buffer (5 mM final concentration, 56 mCi/mmol specific activity) was performed. Sebocytes were then returned to the incubator for four hours after which each culture was rinsed three times with phosphate buffered saline to remove unbound label. Radioactive label remaining in the sebocytes was harvested and counted using a Beckman scintillation counter.

Data set [2] relates to MelanoDerm MEL-300. Nature of the data set: Pigmentation in MelanoDerm Living Skin Equivalent (blue colour image analysis). Conditions: for effect of South pole magnetism on skin depigmenting action: Kojic acid 500, Yohimbine 25, Ascorbic acid 285 micro-molar, magnet vs no magnet, p<0.05; for Pigmentation Reduction Magnet % South Pole (B): day 14, South Pole magnet; for Pigmentation Reduction Magnet % South Pole (B) / Pigmentation Reduction % No Magnet (A): individual tissues; for Pigmentation Reduction % No Magnet (A): day 14, no magnet, relative to untreated control. Here is the method: Kojic acid, Vitamin C, and Yohimbine were examined for their ability to reduce pigmentation in the MelanoDerm Living Skin Equivalent in the presence and absence of South Pole magnetism. After 14 days of incubation, during which one series of tissues was exposed to South Pole magnetism and an equivalent duplicate series was not, the melanin color formed in each tissue was estimated using primary color image analysis.
MelanoDerm™ MEL-300, a 3-dimensional epidermal model containing functioning melanoctyes produced by MatTek Corporation, Ashland, Mass., was the tissue used for this experiment. Each MEL-300 kit has 24 tissue pieces.
Three depigmenting actives were added to the Melanoderm incubation medium at the following final concentrations,
Two (2) MEL-300 kits, each with 24 tissue pieces, were prepared with identical application of actives. Each active, Vitamin C, Kojic acid & Yohimbine, was applied to the incubation medium of 5 tissues at the concentrations specified above. 4 tissues were untreated. […] One Mel-300 kit prepared as above was placed on the 6 inch×4 inch South Pole surface of the Ferrimag magnet for incubation, and the identical second Mel-300 kit was incubated at the opposite side (top left vs bottom right) of the same incubator and additionally shielded from the magnet.
The tissues were incubated for 14 days in maintenance medium at 37 degrees centigrade and a constant atmosphere (5%CO2). The maintenance medium and actives were replenished 4 times weekly. At 7 days, 2 tissues were removed from each active and control group leaving 3 tissues in each group (2 in the untreated group) for day 14 evaluation.
At the day 14 completion of the experiment the tissue pieces of each Mel-300 incubation plate were photographed from above. Each tissue appeared as a small disc varying in brown color intensity. The photographs of two Mel-300 incubation plates (one incubated on the magnet and one without magnetism) were scanned into a Pentium II computer and the color primary color content of each disc was measured using a color analysis macro within an Optimas image quantification software package. The blue color content was used as an index of melanin pigment (preliminary experiments confirmed that the principle primary color of melanin is blue using this image analysis system—this was established by comparing brown freckles and age spots with surrounding non-pigmented skin in color photographs of Caucasian human skin). The blue color intensity scale is 0-255 where 0 is saturation with blue color and 255 is total absence of blue color. The actual blue scale reading of each tissue sample was converted to a % blue value by computing it's proportion of the full range of 0to 255.

Data set [3] concerns PGE-2. Nature of the data set: PGE-2 release by MelanoDerm Living Skin Equivalents (Elisa). On the set-up: PGE-2(i) / PGE-2 (ii): unit not given beside the values. Conditions: 0.5% phytic acid; for PGE-2 release % Untreated: 24 hr; for PGE-2(i): first determination; for PGE-2(i) / PGE-2 (ii): individual tissues; for PGE-2 Mean: mean of (i) and (ii); for PGE-2 (ii): second determination 7 days later. As to the method: (§1) Phytic acid (0.5%) was examined for its effect on cytokine release by MelanoDerm Living Skin Equivalents in the presence and absence of South Pole magnetism. After 24 hours incubation, during which one set of tissues was exposed to South Pole magnetism and an equivalent duplicate series was not, the culture medium was assayed for IL1-a and PGE-2. In the absence of magnetism there was a significant increase in medium concentration of both IL1-a and PGE-2. These increases were suppressed in the presence of South pole magnetism. Living Skin Equivalent: MelanoDermTM MEL-300, a 3-dimensional epidermal model containing functioning melanoctyes produced by MatTek Corporation, Ashland, Mass., was the tissue used for this experiment. Fifty (50) microliters of phytic acid solution (0.5%) was applied to the stratum corneum surface of 4 MEL-300 tissues. Eight (8) untreated MEL-300 tisues served as controls. Half the tissues (i.e. 2 phytic acid and 4 untreated controls) were placed on the 6 inch×4 inch South Pole surface of the […] magnet for 24 hours incubation (37 degrees centigrade; 5% CO2). After the 24 hr incubation the tissues were removed from the incubation medium and assayed for MTT to confirm tissue viability. The incubation medium was assayed for content of cytokines IL1-a and PGE-2. The tissue samples were refrigerated and a second determination of cyotkines was made 7 days later. The cytokine assays were performed using commercially available 96 well Elisa kits.

Data set [4] has as its system IL1-a. Kind of data set: IL1-a release by MelanoDerm Living Skin Equivalents (Elisa). On the set-up: IL1-a(i) / IL1-a(ii): unit not given here. Conditions: 0.5% phytic acid; for IL1-a release % Untreated: 24 hr; for IL1-a(i): first determination; for IL1-a(i) / IL1-a(ii): individual tissues; for IL1-a Mean: mean of (i) and (ii); for IL1-a(ii): second determination 7 days later. Here is the method:
as §1

Data set [5] concerns MelanoDerm tissue. Kind of data set: MelanoDerm tissue viability by MTT. Conditions: 0.5% in water, preliminary experiment. As to the method: Phytic acid was tested at a concentration of 0.5% in water.
[6] abbreviates: 312.5 uM TDS, Plate A: No Magnet Presence.
The mark [7] stands for this setting: 312.5 uM TDS, Plate B: North Magnet Up (Top Plate).
The mark [8] stands for this setting: 312.5 uM TDS, Plate C: North Magnet Up (Bottom Plate).
Setting [9] is: 312.5 uM TDS, Plate D: South Magnet Up (Top Plate).
[10] abbreviates: 312.5 uM TDS, Plate E: South Magnet Up (Bottom Plate).
Setting [11] is: 10 uM Retinyl Linoleate, Plate A: No Magnet Presence.
The mark [12] stands for this setting: 10 uM Retinyl Linoleate, Plate B: North Magnet Up (Top Plate).
Where [13] appears, read: 10 uM Retinyl Linoleate, Plate C: North Magnet Up (Bottom Plate).
[14] abbreviates: 10 uM Retinyl Linoleate, Plate D: South Magnet Up (Top Plate).
Setting [15] is: 10 uM Retinyl Linoleate, Plate E: South Magnet Up (Bottom Plate).
[16] abbreviates: No Magnetism, increase over untreated.

iso-tridecylsalicylate [TDS]: the “DPMs (AVG)” value came out at 2913.0 DPMs in data set [1] (setting [6]); 3367.8 DPMs in data set [1] (setting [7]); 3543.9 DPMs in data set [1] (setting [8]); 3040.0 DPMs in data set [1] (setting [9]); 2677.4 DPMs in data set [1] (setting [10]). In addition, the “% Reduction” value in data set [1] (setting [6]) turned out to be 36.3%; in data set [1] (setting [7]), 23.6%; in data set [1] (setting [8]), 4.9%; in data set [1] (setting [9]), 14.7%; in data set [1] (setting [10]) it was 20.5%.

Consider `O=c1cc(CO)occ1O` [Kojic Acid, Kojic acid], for which, in data set [2], the “effect of South pole magnetism on skin depigmenting action” value (“effect of South pole magnetism” for short) is recorded as “enhances”. Moreover, in data set [2] (Kojic acid 500 micro-molar), the “Mean A-B (Mean Difference)” value is −2.06; the “Pigmentation Reduction Magnet % South Pole (B)” value was −9.21% and −10.02% and 4.75%; the “Pigmentation Reduction % No Magnet (A)” value is −4.77% and −8.72% and −4.27%.

For `CCCCC/C=C\C/C=C\CCCCCCCC(=O)OC/C=C(C)/C=C/C=C(C)/C=C/C1=C(C)CCCC1(C)C` [Retinyl Linoleate], the “DPMs (AVG)” value is recorded as 4198.1 DPMs in data set [1] (setting [11]); 4123.0 DPMs in data set [1] (setting [12]); 3660.1 DPMs in data set [1] (setting [13]); 3619.4 DPMs in data set [1] (setting [14]); 3181.1 DPMs in data set [1] (setting [15]). Also, the “% Reduction” value is 3.9% in data set [1] (setting [11]); 6.5% in data set [1] (setting [12]); 1.8% in data set [1] (setting [13]); −1.6% in data set [1] (setting [14]); 5.6% in data set [1] (setting [15]).

For the compound `COC(=O)[C@@H]1[C@H]2C[C@H]3c4[nH]c5ccccc5c4CCN3C[C@@H]2CC[C@@H]1O` [Yohimbine], the “effect of South pole magnetism” value in data set [2] was “enhances”. In addition, in data set [2] (Yohimbine 25 micro-molar), the “Mean A-B (Mean Difference)” value is on record as −3.27; the “Pigmentation Reduction Magnet % South Pole (B)” value is −2.55% and −8.08% and −6.76%; the “Pigmentation Reduction % No Magnet (A)” value is 1.85% and −5.63% and −3.8%.

In the case of `O=C1O[C@H]([C@@H](O)CO)C(O)=C1O` [Vitamine C, Ascorbic acid], in data set [2] (Ascorbic acid 285 micro-molar), the “Mean A-B (Mean Difference)” value is recorded as −3.97; the “Pigmentation Reduction Magnet % South Pole (B)” value was −6.18% and −6.34% and −4.55%; the “Pigmentation Reduction % No Magnet (A)” value is −4.21% and −2.65% and 1.7%. In addition, the “effect of South pole magnetism” value in data set [2] is recorded as “enhances”.

As for `O=P(O)(O)O[C@H]1[C@H](OP(=O)(O)O)[C@@H](OP(=O)(O)O)[C@H](OP(=O)(O)O)[C@@H](OP(=O)(O)O)[C@H]1OP(=O)(O)O` [Phytic acid], in data set [3] (+ South Pole Magnetism, change over untreated plus magnet), the “PGE-2 release % Untreated” value is given as −2%. Further, the “PGE-2 release % Untreated” value in data set [3] (setting [16]) was 191%. In data set [3] (South Pole magnet), the “PGE-2(i)” value is 2056 and 2387; the “PGE-2 Mean” value is 2093 +/− 208; the “PGE-2 (ii)” value was 1899 and 2030. In addition, in data set [3] (no magnet), the “PGE-2(i)” value is 5326 and 4673; the “PGE-2 Mean” value is recorded as 5136 +/− 421; the “PGE-2 (ii)” value was 5621 and 4923. Moreover, the “IL1-a release % Untreated” value in data set [4] (+ South Pole Magnetism, increase over untreated plus magnet) was determined as 16%. For the same compound, in data set [4] (setting [16]), the “IL1-a release % Untreated” value turned out to be 99%. Also, in data set [4] (South Pole magnet), the “IL1-a(i)” value is 239.1 and 108.9; the “IL1-a Mean” value is reported as 151.2 +/− 64; the “IL1-a(ii)” value is 158.2 and 98.4. In addition, in data set [4] (no magnet), the “IL1-a(i)” value was 285.3 and 222.9; the “IL1-a Mean” value is given as 209 +/− 61; the “IL1-a(ii)” value was 186.2 and 141.1. For the same compound, the “toxicity to MelanoDerm tissue (tissue viability by MTT)” value in data set [5] is “non-toxic”.
